Experimental data reported in US7399825B2, “Synthetic peptide, inhibitor to DNA viruses” (priority 2003, dated 2008).
No end group written: not given here.

Experiments:
uninfected cells = settings: up to 200 μg/ml
herpes viruses = assay: Antiviral activity of synthetic Herp versions (13, 10 and 5 amino acids); type: cell-based; settings: synthetic versions of Herp compared
Protocol: ID. […] The sequencing and synthesizing was contracted out to the Protein Core Laboratory of Baylor College of Medicine, Houston, Tex.
Infectivity Inhibition of HSV-1 and HSV-2 Viruses by Synthetic Herp: For comparison, Herpoxin and the synthetic Herps were tested in Vero cell cultures infected with HSV-1 or HSV-2 viruses. The cells were infected in serial concentrations from 10^2 to 10^8. Three wells were used for each concentration. After absorption of the virus the cultures were divided into three groups. Group one received medium containing PBS as a […] control, group two received medium containing 10 μg/ml of Herpoxin (natural Herp) and in the remaining group the medium was incorporated with 10 μg/ml synthetic Herp (Syn-Herp-10 amino acid (AA) version). The tests were read after six days and TCID/50 were calculated from CPE.

Substance	effect on the respective uninfected cells (uninfected cells)	antiviral activity / inhibition of herpes viruses (herpes viruses)
NLYQFKNMIQ [Syn Herp, Asn-Leu-Tyr-Gln-Phe-Lys-Asn-Met-Ile-Gln]	no effect	
NLYQFKNMIQQFL [SEQ. ID. NO. 1]		good results
Asn-Leu-Tyr-Gln-Phe (NLYQF; SYNTHESIZED. CORRESPONDS TO POSITIONS 1-5 OF SEQ. ID. NO. 1.) [SEQ. ID. NO. 3, synthetic Herp of 5 amino acids from the N-terminal]		good results
